Source: patent US6355799B1, “Substituted benzene compounds, process for their preparation, and herbicidal and defoliant compositions containing them” (ISK Americas Incorporated, priority 1997, dated 2002)

Tests used:
Assay type in all cases: in vivo
[1] = system: redroot pigweed (Amaranthus retroflexus, AMARE); assay: Pre-emerge test, greenhouse herbicide activity screening; details: phytotoxicity rating 0-100, 14 days after application
Method in brief: (§1)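 Compounds in acetone were track-sprayed at 187 l/ha, 15–1000 g ai/ha, onto sandy loam pots. Pre-emerge seeds were sown one day before spraying, with surface watering afterwards. Post-emerge plants were at the 2–3 leaf stage and sprayed with 0.25% v/v non-ionic surfactant. Injury was rated 0–100 at 14 days.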

[2] = system: barnyardgrass (Echinochloa crus-galli, ECHCG); assay: as above; details: phytotoxicity rating 0-100, 14 days after application
Method in brief: (§2)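 Compounds in acetone were track-sprayed at 15-1000 g ai/ha (187 l/ha) on sandy loam pots: pre-emerge one day after seeding, post-emerge at 2-3 leaf stage with 0.25% v/v non-ionic surfactant. Phytotoxicity was rated 14 days later on a 0 (no damage) to 100 (complete death) scale.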

[3] = system: green foxtail (Setaria viridis, SETVI); assay: as above; details: phytotoxicity rating 0-100, 14 days after application
Method in brief: as §2

[4] = system: ivyleaf morningglory (Ipomoea hederacea, IPOHE); assay: as above; details: phytotoxicity rating 0-100, 14 days after application
Method in brief: as §2

[5] = system: johnsongrass (Sorghum halepense, SORHA); assay: as above; details: phytotoxicity rating 0-100, 14 days after application
Method in brief: as §2

[6] = system: lambsquarters (Chenopodium album, CHEAL); assay: as above; details: phytotoxicity rating 0-100, 14 days after application
Method in brief: as §2

[7] = system: large crabgrass (Digitaria sanguinalis, DIGSA); assay: as above; details: phytotoxicity rating 0-100, 14 days after application
Method in brief: as §2

[8] = system: sicklepod (Cassia obtusifolia, CASOB); assay: as above; details: phytotoxicity rating 0-100, 14 days after application
Method in brief: as §2

[9] = system: velvetleaf (Abutilon theophrasti, ABUTH); assay: as above; details: phytotoxicity rating 0-100, 14 days after application
Method in brief: as §2

[10] = system: field corn (Zea mays L., var. Dekalb 535, CORN); assay: Pre-emerge test, crop safety; details: crop damage rating 0-100, 14 days after application
Method in brief: as §1

[11] = system: upland rice (Oryza sp., var. Tebonnet, RICE); assay: Pre-emerge test, crop safety; details: crop damage rating 0-100, 14 days after application
Method in brief: as §1

[12] = system: barnyardgrass (Echinochloa crus-galli, ECHCG); assay: Post-emerge test, greenhouse herbicide activity screening; details: post-emerge, 14 days after application, rating scale 0-100
Method in brief: (§3)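 Applied at 15–1000 g ai/ha from acetone in 187 l/ha spray volume. Post-emergence applications included 0.25% v/v non-ionic surfactant and reached plants sown 8–21 days before. Pre-emergence applications were incorporated by surface watering. Efficacy or crop damage was rated on a 0–100 scale after 14 days.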

[13] = system: green foxtail (Setaria viridis, SETVI); assay: as above; details: post-emerge, 14 days after application, rating scale 0-100
Method in brief: as §3

[14] = system: ivyleaf morningglory (Ipomoea hederacea, IPOHE); assay: as above; details: post-emerge, 14 days after application, rating scale 0-100
Method in brief: as §3

[15] = system: johnsongrass (Sorghum halepense, SORHA); assay: as above; details: post-emerge, 14 days after application, rating scale 0-100
Method in brief: as §3

[16] = system: lambsquarters (Chenopodium album, CHEAL); assay: as above; details: post-emerge, 14 days after application, rating scale 0-100
Method in brief: as §3

[17] = system: large crabgrass (Digitaria sanguinalis, DIGSA); assay: as above; details: post-emerge, 14 days after application, rating scale 0-100
Method in brief: as §3

[18] = system: redroot pigweed (Amaranthus retroflexus, AMARE); assay: as above; details: post-emerge, 14 days after application
Method in brief: as §3

[19] = system: sicklepod (Cassia obtusifolia, CASOB); assay: as above; details: post-emerge, 14 days after application, rating scale 0-100
Method in brief: as §3

[20] = system: velvetleaf (Abutilon theophrasti, ABUTH); assay: as above; details: post-emerge, 14 days after application, rating scale 0-100
Method in brief: as §3

[21] = system: field corn (Zea mays L., var. Dekalb 535, CORN); assay: Post-emerge test, crop safety; details: post-emerge, 14 days after application, rating scale 0-100
Method in brief: as §2

[22] = system: upland rice (Oryza sp., var. Tebonnet, RICE); assay: Post-emerge test, crop safety; details: post-emerge, 14 days after application, rating scale 0-100
Method in brief: as §2

[23] = 250 g ai/ha, rating scale 0-100

CCOC(=O)COc1c(Cl)cc(F)c(-n2c(=O)cc(C(F)(F)F)n(C)c2=O)c1NC(=O)C=Cc1ccccc1 [2-190]
Pre-emerge Herbicidal Activity AMARE ([1]; 63 g ai/ha): 95
Pre-emerge Herbicidal Activity AMARE ([1]; 250 g ai/ha): 100
Pre-emerge Herbicidal Activity ECHCG ([2]; 63 g ai/ha): 0
Pre-emerge Herbicidal Activity ECHCG ([2]; 250 g ai/ha): 0
Pre-emerge Herbicidal Activity SETVI ([3]; 63 g ai/ha): 0
Pre-emerge Herbicidal Activity SETVI ([3]; 250 g ai/ha): 30
Pre-emerge Herbicidal Activity IPOHE ([4]; 63 g ai/ha): 0
Pre-emerge Herbicidal Activity IPOHE ([4]; 250 g ai/ha): 90
Pre-emerge Herbicidal Activity SORHA ([5]; 63 g ai/ha): 0
Pre-emerge Herbicidal Activity SORHA ([5]; 250 g ai/ha): 0
Pre-emerge Herbicidal Activity CHEAL ([6]; 63 g ai/ha): 100
Pre-emerge Herbicidal Activity CHEAL ([6]; 250 g ai/ha): 100
Pre-emerge Herbicidal Activity DIGSA ([7]; 63 g ai/ha): 0
Pre-emerge Herbicidal Activity DIGSA ([7]; 250 g ai/ha): 30
Pre-emerge Herbicidal Activity CASOB ([8]; 63 g ai/ha): 30
Pre-emerge Herbicidal Activity CASOB ([8]; 250 g ai/ha): 70
Pre-emerge Herbicidal Activity ABUTH ([9]; 63 g ai/ha): 100
Pre-emerge Herbicidal Activity ABUTH ([9]; 250 g ai/ha): 100
Pre-emerge Herbicidal Activity CORN ([10]; 63 g ai/ha): 0
Pre-emerge Herbicidal Activity CORN ([10]; 250 g ai/ha): 0
Pre-emerge Herbicidal Activity RICE ([11]; 63 g ai/ha): 10
Pre-emerge Herbicidal Activity RICE ([11]; 250 g ai/ha): 20
ECHCG phytotoxicity rating ([12]; 63 g ai/ha): 0
phytotoxicity rating ECHCG ([12]; 250 g ai/ha): 10
SETVI phytotoxicity rating ([13]; 63 g ai/ha): 0
phytotoxicity rating SETVI ([13]; 250 g ai/ha): 0
IPOHE phytotoxicity rating ([14]; 63 g ai/ha): 50
phytotoxicity rating IPOHE ([14]; 250 g ai/ha): 90
SORHA phytotoxicity rating ([15]; 63 g ai/ha): 0
phytotoxicity rating SORHA ([15]; 250 g ai/ha): 50
CHEAL phytotoxicity rating ([16]; 63 g ai/ha): 90
phytotoxicity rating CHEAL ([16]; 250 g ai/ha): 100
DIGSA phytotoxicity rating ([17]; 63 g ai/ha): 0
phytotoxicity rating DIGSA ([17]; 250 g ai/ha): 0
AMARE phytotoxicity rating ([18]; 63 g ai/ha, rating scale 0-100): 95
phytotoxicity rating AMARE [18, 23]: 99
CASOB phytotoxicity rating ([19]; 63 g ai/ha): 20
phytotoxicity rating CASOB ([19]; 250 g ai/ha): 80
ABUTH phytotoxicity rating ([20]; 63 g ai/ha): 90
phytotoxicity rating ABUTH ([20]; 250 g ai/ha): 90
CORN phytotoxicity rating (crop damage) ([21]; 63 g ai/ha): 5
phytotoxicity rating CORN (crop damage) ([21]; 250 g ai/ha): 10
RICE phytotoxicity rating (crop damage) ([22]; 63 g ai/ha): 0
phytotoxicity rating RICE (crop damage) ([22]; 250 g ai/ha): 5

Cn1c(C(F)(F)F)cc(=O)n(-c2c(F)cc(Cl)c(Oc3ncccc3[N+](=O)[O-])c2NC(=O)c2ccc3ccccc3c2)c1=O [2-199]
Pre-emerge Herbicidal Activity AMARE ([1]; 63 g ai/ha): 100
Pre-emerge Herbicidal Activity AMARE ([1]; 250 g ai/ha): 100
Pre-emerge Herbicidal Activity ECHCG ([2]; 63 g ai/ha): 99
Pre-emerge Herbicidal Activity ECHCG ([2]; 250 g ai/ha): 100
Pre-emerge Herbicidal Activity SETVI ([3]; 63 g ai/ha): 100
Pre-emerge Herbicidal Activity SETVI ([3]; 250 g ai/ha): 100
Pre-emerge Herbicidal Activity IPOHE ([4]; 63 g ai/ha): 100
Pre-emerge Herbicidal Activity IPOHE ([4]; 250 g ai/ha): 100
Pre-emerge Herbicidal Activity SORHA ([5]; 63 g ai/ha): 100
Pre-emerge Herbicidal Activity SORHA ([5]; 250 g ai/ha): 100
Pre-emerge Herbicidal Activity CHEAL ([6]; 63 g ai/ha): 100
Pre-emerge Herbicidal Activity CHEAL ([6]; 250 g ai/ha): 100
Pre-emerge Herbicidal Activity DIGSA ([7]; 63 g ai/ha): 100
Pre-emerge Herbicidal Activity DIGSA ([7]; 250 g ai/ha): 100
Pre-emerge Herbicidal Activity CASOB ([8]; 63 g ai/ha): 100
Pre-emerge Herbicidal Activity CASOB ([8]; 250 g ai/ha): 100
Pre-emerge Herbicidal Activity ABUTH ([9]; 63 g ai/ha): 100
Pre-emerge Herbicidal Activity ABUTH ([9]; 250 g ai/ha): 100
Pre-emerge Herbicidal Activity CORN ([10]; 63 g ai/ha): 95
Pre-emerge Herbicidal Activity CORN ([10]; 250 g ai/ha): 100
Pre-emerge Herbicidal Activity RICE ([11]; 63 g ai/ha): 99
Pre-emerge Herbicidal Activity RICE ([11]; 250 g ai/ha): 100
phytotoxicity rating ECHCG ([12]; 63 g ai/ha): 60
phytotoxicity rating ECHCG ([12]; 250 g ai/ha): 100
phytotoxicity rating SETVI ([13]; 63 g ai/ha): 50
phytotoxicity rating SETVI ([13]; 250 g ai/ha): 90
phytotoxicity rating IPOHE ([14]; 63 g ai/ha): 100
phytotoxicity rating IPOHE ([14]; 250 g ai/ha): 100
phytotoxicity rating SORHA ([15]; 63 g ai/ha): 40
phytotoxicity rating SORHA ([15]; 250 g ai/ha): 95
phytotoxicity rating CHEAL ([16]; 63 g ai/ha): 100
phytotoxicity rating CHEAL ([16]; 250 g ai/ha): 100
phytotoxicity rating DIGSA ([17]; 63 g ai/ha): 30
phytotoxicity rating DIGSA ([17]; 250 g ai/ha): 95
phytotoxicity rating AMARE ([18]; 63 g ai/ha, rating scale 0-100 (0 no damage, 100 complete death)): 95
phytotoxicity rating AMARE [18, 23]: 100
phytotoxicity rating CASOB ([19]; 63 g ai/ha): 100
phytotoxicity rating CASOB ([19]; 250 g ai/ha): 100
phytotoxicity rating ABUTH ([20]; 63 g ai/ha): 100
phytotoxicity rating ABUTH ([20]; 250 g ai/ha): 100
phytotoxicity rating CORN (crop damage) ([21]; 63 g ai/ha): 30
phytotoxicity rating CORN (crop damage) ([21]; 250 g ai/ha): 90
phytotoxicity rating RICE (crop damage) ([22]; 63 g ai/ha): 80
phytotoxicity rating RICE (crop damage) ([22]; 250 g ai/ha): 90
